# ChEMBL document CHEMBL1201862, “PubChem BioAssay data set” (2004)
# Activity calls are given as the source filed them. Rule as the data show it, for most assays here: actives have a measured IC50 and inactives only a lower limit.
# Tests used:
# Assay type in all cases: functional
# [1] = target: G-protein coupled receptor 55 (Homo sapiens, UniProt Q9Y2T6); test: GPR55 antagonists, SAR follow-up, counter-screen for GPR35 antagonist project, imaging, image-based (AID 2397)
# [2] = target: T1, Tyrosine-protein phosphatase non-receptor type 22 (Homo sapiens, UniProt Q9Y2R2); test: SAR LYP1 Fluorescent Assay using OMFP substrate for In Vitro dose response studies - Set 3. [Related pubchem assays (depositor defined):AID1779, AID1784, AID2140, AID2686]
# T1 sequence (Q9Y2R2 whole entry): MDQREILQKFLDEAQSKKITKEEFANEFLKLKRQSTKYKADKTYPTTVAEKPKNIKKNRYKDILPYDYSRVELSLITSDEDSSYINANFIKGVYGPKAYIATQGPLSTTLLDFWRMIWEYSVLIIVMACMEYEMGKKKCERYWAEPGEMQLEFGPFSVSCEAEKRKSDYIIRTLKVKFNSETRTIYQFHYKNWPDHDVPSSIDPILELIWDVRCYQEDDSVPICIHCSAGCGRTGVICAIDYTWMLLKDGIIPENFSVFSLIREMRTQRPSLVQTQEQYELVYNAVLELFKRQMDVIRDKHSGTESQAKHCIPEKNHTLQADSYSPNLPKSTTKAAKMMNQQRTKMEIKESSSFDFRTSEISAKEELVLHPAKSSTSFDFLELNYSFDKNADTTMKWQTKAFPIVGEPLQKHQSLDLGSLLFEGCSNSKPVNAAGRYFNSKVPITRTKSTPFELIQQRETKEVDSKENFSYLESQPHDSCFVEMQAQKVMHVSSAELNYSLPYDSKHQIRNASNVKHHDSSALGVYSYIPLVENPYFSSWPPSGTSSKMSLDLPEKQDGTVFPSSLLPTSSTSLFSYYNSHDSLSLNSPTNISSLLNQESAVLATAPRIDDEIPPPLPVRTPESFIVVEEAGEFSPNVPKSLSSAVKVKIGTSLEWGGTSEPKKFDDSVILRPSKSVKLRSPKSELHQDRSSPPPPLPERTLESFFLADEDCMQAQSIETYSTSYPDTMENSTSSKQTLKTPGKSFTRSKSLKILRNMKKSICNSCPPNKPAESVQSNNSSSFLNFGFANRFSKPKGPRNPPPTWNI
# [3] = target: T1, Tyrosine-protein phosphatase non-receptor type 22; test: SAR LYP1 Fluorescent Assay using OMFP substrate for In Vitro dose response studies - Set 2. [Related pubchem assays (depositor defined):AID1779, AID1784, AID2140, AID449726, AID488869]
# [4] = target: T2, Tyrosine-protein phosphatase non-receptor type 7 (Homo sapiens, UniProt P35236); test: HePTP (PTPN7) phosphatase inhibitor potency, SAR follow-up, biochemical, set 2 (AID 449736)
# T2 sequence (P35236 whole entry): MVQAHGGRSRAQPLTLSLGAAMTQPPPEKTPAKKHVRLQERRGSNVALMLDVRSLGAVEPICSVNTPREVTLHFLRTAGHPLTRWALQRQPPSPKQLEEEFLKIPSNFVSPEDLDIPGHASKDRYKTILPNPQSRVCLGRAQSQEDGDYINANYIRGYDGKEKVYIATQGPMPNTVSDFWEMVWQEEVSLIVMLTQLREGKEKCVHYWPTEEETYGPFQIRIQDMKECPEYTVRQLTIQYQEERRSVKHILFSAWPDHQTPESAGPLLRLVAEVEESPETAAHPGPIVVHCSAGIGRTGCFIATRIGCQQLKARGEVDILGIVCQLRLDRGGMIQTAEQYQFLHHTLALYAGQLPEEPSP
# [5] = target: Tyrosine-protein phosphatase non-receptor type 12 (Homo sapiens, UniProt Q05209); test: SAR Selectivity Analysis of small molecule inhibitors of PEST using pCAP in a fluorescence assay. [Related pubchem assays (depositor defined):AID1779, AID1784, AID2135]
# Tyrosine-protein phosphatase non-receptor type 12, sequence (Q05209 whole entry): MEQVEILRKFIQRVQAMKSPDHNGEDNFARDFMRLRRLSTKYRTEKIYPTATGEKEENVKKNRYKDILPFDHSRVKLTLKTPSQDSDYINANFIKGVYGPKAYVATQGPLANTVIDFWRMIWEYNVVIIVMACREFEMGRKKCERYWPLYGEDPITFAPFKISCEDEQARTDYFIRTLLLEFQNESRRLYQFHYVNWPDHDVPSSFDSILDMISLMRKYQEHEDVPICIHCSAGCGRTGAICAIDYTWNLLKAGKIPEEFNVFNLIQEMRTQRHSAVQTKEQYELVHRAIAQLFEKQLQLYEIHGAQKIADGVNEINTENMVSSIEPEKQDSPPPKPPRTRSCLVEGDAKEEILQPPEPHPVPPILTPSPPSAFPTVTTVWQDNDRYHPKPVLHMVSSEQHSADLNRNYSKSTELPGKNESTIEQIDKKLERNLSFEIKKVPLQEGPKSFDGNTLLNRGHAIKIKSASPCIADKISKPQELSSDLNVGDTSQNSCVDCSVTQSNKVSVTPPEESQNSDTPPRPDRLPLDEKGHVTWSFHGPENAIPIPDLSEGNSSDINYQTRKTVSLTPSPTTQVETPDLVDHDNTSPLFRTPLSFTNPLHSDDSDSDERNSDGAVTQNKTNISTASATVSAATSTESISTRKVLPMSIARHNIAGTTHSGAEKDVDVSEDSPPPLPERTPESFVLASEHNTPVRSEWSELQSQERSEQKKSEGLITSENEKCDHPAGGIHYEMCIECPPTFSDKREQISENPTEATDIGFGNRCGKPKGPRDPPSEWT
# [6] = target: T1, Tyrosine-protein phosphatase non-receptor type 22; test: LYP (PTPN22) phosphatase inhibitor potency, SAR follow-up, biochemical, pCAP fluorogenic substrate, fluorescence, set 3 (AID 449727)
# [7] = target: T1, Tyrosine-protein phosphatase non-receptor type 22; test: SAR LYP1 Fluorescent Assay using pCAP substrate for In Vitro dose response studies - Set 2. [Related pubchem assays (depositor defined):AID1779, AID1784, AID2135, AID449727]
# [8] = target: T3, Kappa-type opioid receptor (Homo sapiens, UniProt P41145); test: SAR analysis of small molecule agonists of the kappa opioid receptor via a luminescent beta-arrestin assay - Set 3. [Related pubchem assays (depositor defined):AID1777, AID1785, AID1786, AID1966, AID2133, AID2136, AID2284, AID2500]
# T3 sequence (P41145 whole entry): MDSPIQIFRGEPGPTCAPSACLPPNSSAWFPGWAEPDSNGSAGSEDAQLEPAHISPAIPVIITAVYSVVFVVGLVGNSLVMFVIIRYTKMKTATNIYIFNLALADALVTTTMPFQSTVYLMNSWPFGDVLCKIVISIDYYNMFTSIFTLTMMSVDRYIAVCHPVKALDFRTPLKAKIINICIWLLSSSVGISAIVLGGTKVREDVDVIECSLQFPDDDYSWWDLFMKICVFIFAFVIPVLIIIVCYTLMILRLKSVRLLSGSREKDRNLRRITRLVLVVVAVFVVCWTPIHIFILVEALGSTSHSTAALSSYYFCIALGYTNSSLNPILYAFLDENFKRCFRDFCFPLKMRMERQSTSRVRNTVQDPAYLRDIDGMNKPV
# Mu-type opioid receptor = Mu-type opioid receptor (Homo sapiens, UniProt P35372); test: SAR Analysis of Agonists of the MOR Receptor using an Image-Based Assay - Set 3. [Related pubchem assays (depositor defined):AID1777, AID1785, AID1786, AID1966, AID2133, AID2136, AID2284, AID2285, AID2352]
# Mu-type opioid receptor, sequence (P35372 whole entry): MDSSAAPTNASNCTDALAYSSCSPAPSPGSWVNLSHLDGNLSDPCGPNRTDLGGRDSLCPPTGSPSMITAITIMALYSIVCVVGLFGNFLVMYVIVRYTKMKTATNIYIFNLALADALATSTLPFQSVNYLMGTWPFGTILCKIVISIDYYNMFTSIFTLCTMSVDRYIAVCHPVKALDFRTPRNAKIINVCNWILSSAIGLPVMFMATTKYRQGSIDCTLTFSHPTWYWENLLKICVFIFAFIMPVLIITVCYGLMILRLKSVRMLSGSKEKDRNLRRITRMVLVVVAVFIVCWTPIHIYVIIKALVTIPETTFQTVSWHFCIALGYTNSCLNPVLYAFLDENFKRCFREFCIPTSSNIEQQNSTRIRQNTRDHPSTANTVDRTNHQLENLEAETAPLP
# [9] = target: Delta-type opioid receptor (Homo sapiens, UniProt P41143); test: SAR Analysis of Agonists of the DOR Receptor using an Image-Based Assay - Set 3. [Related pubchem assays (depositor defined):AID1777, AID1786]
# Delta-type opioid receptor, sequence (P41143 whole entry): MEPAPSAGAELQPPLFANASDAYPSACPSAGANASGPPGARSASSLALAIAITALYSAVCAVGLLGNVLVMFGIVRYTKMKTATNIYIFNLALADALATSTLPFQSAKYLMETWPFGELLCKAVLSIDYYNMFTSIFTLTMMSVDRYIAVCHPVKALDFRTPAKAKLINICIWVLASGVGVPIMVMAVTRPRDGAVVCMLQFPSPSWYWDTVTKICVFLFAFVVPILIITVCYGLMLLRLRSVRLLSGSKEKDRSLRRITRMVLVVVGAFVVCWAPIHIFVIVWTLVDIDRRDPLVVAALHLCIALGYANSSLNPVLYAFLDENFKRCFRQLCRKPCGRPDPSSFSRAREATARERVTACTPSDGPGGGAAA
# [10] = target: T3, Kappa-type opioid receptor; test: KOR agonist analogs, arrestin-GFP redistribution, SAR follow-up, imaging, image-based, set 3 (AID 488833)
# [11] = target: Intestinal-type alkaline phosphatase (Homo sapiens, UniProt P09923); test: inhibition of human intestinal alkaline phosphatase – biochemical, dose response (AID 488876)
# Intestinal-type alkaline phosphatase (Homo sapiens, UniProt P09923), sequence (P09923 whole entry): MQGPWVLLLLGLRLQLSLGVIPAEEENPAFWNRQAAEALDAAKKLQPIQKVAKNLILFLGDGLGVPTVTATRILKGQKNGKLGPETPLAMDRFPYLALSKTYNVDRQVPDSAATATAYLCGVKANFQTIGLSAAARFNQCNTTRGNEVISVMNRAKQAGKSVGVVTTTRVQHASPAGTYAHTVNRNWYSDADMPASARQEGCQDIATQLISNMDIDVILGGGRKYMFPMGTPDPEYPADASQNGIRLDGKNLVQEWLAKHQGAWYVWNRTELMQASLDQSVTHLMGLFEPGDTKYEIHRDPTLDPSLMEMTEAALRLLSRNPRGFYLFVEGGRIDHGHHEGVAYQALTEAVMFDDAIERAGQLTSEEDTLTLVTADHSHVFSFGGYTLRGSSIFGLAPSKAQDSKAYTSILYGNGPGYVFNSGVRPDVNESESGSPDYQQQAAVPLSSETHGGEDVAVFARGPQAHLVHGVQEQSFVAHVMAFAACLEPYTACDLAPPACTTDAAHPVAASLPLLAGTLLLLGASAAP
# [12] = target: Intestinal-type alkaline phosphatase (Mus musculus, UniProt P24822); test: PubChem AID 488785
# Intestinal-type alkaline phosphatase (Mus musculus, UniProt P24822), sequence (P24822 whole entry): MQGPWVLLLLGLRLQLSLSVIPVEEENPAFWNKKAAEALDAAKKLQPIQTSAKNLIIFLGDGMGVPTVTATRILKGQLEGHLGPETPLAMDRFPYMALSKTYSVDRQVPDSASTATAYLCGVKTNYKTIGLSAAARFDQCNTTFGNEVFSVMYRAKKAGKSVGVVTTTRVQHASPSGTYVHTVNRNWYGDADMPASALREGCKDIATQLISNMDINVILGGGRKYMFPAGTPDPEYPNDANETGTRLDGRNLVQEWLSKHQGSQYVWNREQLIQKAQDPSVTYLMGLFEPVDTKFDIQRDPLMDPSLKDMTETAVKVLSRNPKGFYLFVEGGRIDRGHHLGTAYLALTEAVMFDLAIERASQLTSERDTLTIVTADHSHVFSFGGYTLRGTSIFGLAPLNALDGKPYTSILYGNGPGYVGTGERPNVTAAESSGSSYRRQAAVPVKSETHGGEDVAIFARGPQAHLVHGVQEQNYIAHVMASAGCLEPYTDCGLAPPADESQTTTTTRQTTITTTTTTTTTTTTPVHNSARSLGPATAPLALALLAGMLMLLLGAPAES
# Vero = Vero cell cytotoxicity, cytotoxicity control for flavivirus capping enzyme inhibitors (AID 588742); settings: Chlorocebus sabaeus
# [13] = target: T4, Alkaline phosphatase, tissue-nonspecific isozyme (Homo sapiens, UniProt P05186); test: TNAP enzyme inhibition by screening hits, dose response, selectivity assay for mouse IAP inhibitor project, biochemical, human TNAP, uHTS hits (AID 488906)
# T4 sequence (P05186 whole entry): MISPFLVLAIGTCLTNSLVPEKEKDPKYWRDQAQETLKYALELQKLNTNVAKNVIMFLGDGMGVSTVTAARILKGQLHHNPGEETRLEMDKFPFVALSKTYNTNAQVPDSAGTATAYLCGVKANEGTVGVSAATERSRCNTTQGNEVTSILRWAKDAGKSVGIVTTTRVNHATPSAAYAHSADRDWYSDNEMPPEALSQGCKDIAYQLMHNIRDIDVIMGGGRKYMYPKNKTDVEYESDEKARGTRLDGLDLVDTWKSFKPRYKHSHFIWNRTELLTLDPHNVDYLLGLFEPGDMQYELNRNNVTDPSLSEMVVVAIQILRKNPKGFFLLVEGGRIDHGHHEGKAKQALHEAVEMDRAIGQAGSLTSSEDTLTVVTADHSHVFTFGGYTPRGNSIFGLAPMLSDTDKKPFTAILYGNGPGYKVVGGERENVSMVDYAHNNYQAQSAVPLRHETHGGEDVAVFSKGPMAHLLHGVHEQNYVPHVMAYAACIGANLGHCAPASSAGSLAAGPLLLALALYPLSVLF
# G-protein coupled receptor 55, sequence (Q9Y2T6 whole entry): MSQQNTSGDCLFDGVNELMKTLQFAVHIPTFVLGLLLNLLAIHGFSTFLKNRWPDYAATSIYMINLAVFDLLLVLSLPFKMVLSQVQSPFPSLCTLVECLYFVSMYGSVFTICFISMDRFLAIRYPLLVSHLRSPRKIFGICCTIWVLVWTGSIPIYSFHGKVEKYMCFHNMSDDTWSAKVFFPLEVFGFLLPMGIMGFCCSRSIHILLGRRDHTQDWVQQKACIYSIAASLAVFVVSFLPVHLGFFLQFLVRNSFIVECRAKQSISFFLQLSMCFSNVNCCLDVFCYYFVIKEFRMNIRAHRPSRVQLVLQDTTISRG
smiles,measurement,setting,value
Fc1ccc(N2CCN(c3ncnc4c3cnn4Cc3ccc(Cl)cc3Cl)CC2)cc1,IC50,[1],> 32 µM (inactive)
O=C(O)COc1ccc(NC(=O)COc2ccc(Cl)cc2)cc1,IC50,[2],> 100 µM (inactive)
same,IC50,[3],> 100 µM (inactive)
same,IC50,[4],> 100 µM (inactive)
same,IC50,[5],> 100 µM (inactive)
same,IC50,[6],> 100 µM (inactive)
same,IC50,[7],> 100 µM (inactive)
Fc1cc(F)cc(CSc2nnc(-c3ccccn3)n2Cc2cccs2)c1,EC50,[8],7.2 µM (active)
same,EC50,Mu-type opioid receptor,> 32 µM (inactive)
same,EC50,[9],> 32 µM (inactive)
same,EC50,[10],3.58 µM (active)
CCOC(=O)C1=C(C)N=c2s/c(=C/c3cccc([N+](=O)[O-])c3O)c(=O)n2C1c1ccc(OC)cc1OC (stereo not given),IC50,[11],> 100 µM (inactive)
same,IC50,[12],4.77 µM (active)
same,CC50,Vero,39.4 µM (active)
same,IC50,[13],77.1 µM (active)
